Measurements taken from the supplement of paper PMC10307832.

Key:
Assay in all cases: relative viability (nuclei count vs DMSO), 5 days (fraction); higher = more cells survive
NCI-H2009 = system: NCI-H2009
Summary of the method: (§1)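 For relative viability, nuclei counts in treated wells were divided by those in vehicle wells. Lung cancer cell lines had been pin-tool dosed in 1536-well plates the day after seeding and cultured for 5 days, then fixed and stained in one step (final 0.05% Triton X-100, 1% formaldehyde, 1 ug/ml Hoechst) and imaged at 4×. Doses were one drug alone or a fixed anchor-drug dose plus five library-drug doses (not always all listed) in √10 steps, and values are duplicate-plate medians.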

NCI-H322M = system: NCI-H322M
Summary of the method: as §1

PC-14 = system: PC-14
Summary of the method: as §1

SK-LU-1 = system: SK-LU-1
Summary of the method: as §1

NCI-H1563 = system: NCI-H1563
Summary of the method: as §1

NCI-H1734 = system: NCI-H1734
Summary of the method: as §1

NCI-H2085 = system: NCI-H2085
Summary of the method: as §1

HOP-62 = system: HOP-62
Summary of the method: as §1

NCI-H2126 = system: NCI-H2126
Summary of the method: as §1

NCI-H1993 = system: NCI-H1993
Summary of the method: as §1

NCI-H647 = system: NCI-H647
Summary of the method: as §1

EMC-BAC-2 = system: EMC-BAC-2
Summary of the method: as §1

NCI-H727 = system: NCI-H727
Summary of the method: as §1

NCI-H661 = system: NCI-H661
Summary of the method: as §1

NCI-H1915 = system: NCI-H1915
Summary of the method: as §1

H3255 = system: H3255
Summary of the method: as §1

NCI-H2023 = system: NCI-H2023
Summary of the method: as §1

SW 1573 = system: SW 1573
Summary of the method: as §1

LCLC-97TM1 = system: LCLC-97TM1
Summary of the method: as §1

NCI-H2347 = system: NCI-H2347
Summary of the method: as §1

LXF-289 = system: LXF-289
Summary of the method: as §1

EPLC-272H = system: EPLC-272H
Summary of the method: as §1

Q: How did the relative viability (NCI-H2009; first compound 0.0002 µM) turn out when `CC(=O)O[C@@]12CO[C@@H]1C[C@H](O)[C@@]1(C)C(=O)[C@H](O)C3=C(C)[C@@H](OC(=O)[C@H](O)[C@@H](NC(=O)OC(C)(C)C)c4ccccc4)C[C@@](O)([C@@H](OC(=O)c4ccccc4)[C@H]21)C3(C)C` [Docetaxel] + CS(=O)(=O)N1CCN(Cc2cc3nc(-c4cccc5[nH]ncc45)nc(N4CCOCC4)c3s2)CC1 [Pictilisib] (partner 1 µM) was run?
A: 0.696

Q: What about the relative viability (NCI-H2009; first compound 0.000632 µM) of the same molecule?
A: 0.747

Q: What about the relative viability (NCI-H2009; first compound 0.002 µM) of the same molecule?
A: 0.447

Q: What about the relative viability (NCI-H2009; first compound 0.006325 µM) of the same molecule?
A: 0.203

Q: And the relative viability (NCI-H2009; first compound 0.02 µM)?
A: 0.129

Q: And the relative viability (NCI-H322M; first compound 0.0002 µM)?
A: 0.433

Q: What about the relative viability (NCI-H322M; first compound 0.000632 µM) of the same molecule?
A: 0.493

Q: What about the relative viability (NCI-H322M; first compound 0.002 µM) of the same molecule?
A: 0.492

Q: What about the relative viability (NCI-H322M; first compound 0.006325 µM) of the same molecule?
A: 0.381

Q: And the relative viability (NCI-H322M; first compound 0.02 µM)?
A: 0.313

Q: What about the relative viability (PC-14; first compound 0.0002 µM) of the same molecule?
A: 0.629

Q: What about the relative viability (PC-14; first compound 0.000632 µM) of the same molecule?
A: 0.376

Q: What about the relative viability (PC-14; first compound 0.002 µM) of the same molecule?
A: 0.0774

Q: And the relative viability (PC-14; first compound 0.006325 µM)?
A: 0.0423

Q: What about the relative viability (PC-14; first compound 0.02 µM) of the same molecule?
A: 0.0293

Q: What about the relative viability (SK-LU-1; first compound 0.0002 µM) of the same molecule?
A: 0.608

Q: What about the relative viability (SK-LU-1; first compound 0.000632 µM) of the same molecule?
A: 0.305

Q: And the relative viability (SK-LU-1; first compound 0.002 µM)?
A: 0.253

Q: What about the relative viability (SK-LU-1; first compound 0.006325 µM) of the same molecule?
A: 0.181

Q: What about the relative viability (SK-LU-1; first compound 0.02 µM) of the same molecule?
A: 0.171

Q: What about the relative viability (NCI-H1563; first compound 0.0002 µM) of the same molecule?
A: 0.662

Q: And the relative viability (NCI-H1563; first compound 0.000632 µM)?
A: 0.683

Q: And the relative viability (NCI-H1563; first compound 0.002 µM)?
A: 0.71

Q: What about the relative viability (NCI-H1563; first compound 0.006325 µM) of the same molecule?
A: 0.564

Q: And the relative viability (NCI-H1563; first compound 0.02 µM)?
A: 0.506

Q: And the relative viability (NCI-H1734; first compound 0.0002 µM)?
A: 0.462

Q: What about the relative viability (NCI-H1734; first compound 0.000632 µM) of the same molecule?
A: 0.387

Q: And the relative viability (NCI-H1734; first compound 0.002 µM)?
A: 0.347

Q: And the relative viability (NCI-H1734; first compound 0.006325 µM)?
A: 0.335

Q: And the relative viability (NCI-H1734; first compound 0.02 µM)?
A: 0.213

Q: What about the relative viability (NCI-H2085; first compound 0.0002 µM) of the same molecule?
A: 0.532

Q: What about the relative viability (NCI-H2085; first compound 0.000632 µM) of the same molecule?
A: 0.467

Q: And the relative viability (NCI-H2085; first compound 0.002 µM)?
A: 0.41

Q: And the relative viability (NCI-H2085; first compound 0.006325 µM)?
A: 0.374

Q: What about the relative viability (NCI-H2085; first compound 0.02 µM) of the same molecule?
A: 0.237

Q: And the relative viability (HOP-62; first compound 0.0002 µM)?
A: 0.75

Q: And the relative viability (HOP-62; first compound 0.000632 µM)?
A: 0.395

Q: What about the relative viability (HOP-62; first compound 0.02 µM) of the same molecule?
A: 0.101

Q: What about the relative viability (NCI-H2126; first compound 0.0002 µM) of the same molecule?
A: 0.518

Q: And the relative viability (NCI-H2126; first compound 0.000632 µM)?
A: 0.541

Q: And the relative viability (NCI-H2126; first compound 0.002 µM)?
A: 0.393

Q: And the relative viability (NCI-H2126; first compound 0.006325 µM)?
A: 0.362

Q: What about the relative viability (NCI-H2126; first compound 0.02 µM) of the same molecule?
A: 0.257

Q: And the relative viability (NCI-H1993; first compound 0.0002 µM)?
A: 0.746

Q: What about the relative viability (NCI-H1993; first compound 0.000632 µM) of the same molecule?
A: 0.706

Q: What about the relative viability (NCI-H1993; first compound 0.002 µM) of the same molecule?
A: 0.729

Q: And the relative viability (NCI-H1993; first compound 0.006325 µM)?
A: 0.682

Q: What about the relative viability (NCI-H1993; first compound 0.02 µM) of the same molecule?
A: 0.545

Q: And the relative viability (NCI-H647; first compound 0.0002 µM)?
A: 0.293

Q: What about the relative viability (NCI-H647; first compound 0.000632 µM) of the same molecule?
A: 0.206

Q: And the relative viability (NCI-H647; first compound 0.002 µM)?
A: 0.138

Q: And the relative viability (NCI-H647; first compound 0.006325 µM)?
A: 0.117

Q: What about the relative viability (NCI-H647; first compound 0.02 µM) of the same molecule?
A: 0.0727

Q: And the relative viability (EMC-BAC-2; first compound 0.0002 µM)?
A: 0.555

Q: And the relative viability (EMC-BAC-2; first compound 0.000632 µM)?
A: 0.469

Q: And the relative viability (EMC-BAC-2; first compound 0.002 µM)?
A: 0.324

Q: And the relative viability (EMC-BAC-2; first compound 0.006325 µM)?
A: 0.271

Q: What about the relative viability (EMC-BAC-2; first compound 0.02 µM) of the same molecule?
A: 0.207

Q: What about the relative viability (NCI-H727; first compound 0.0002 µM) of the same molecule?
A: 0.309

Q: What about the relative viability (NCI-H727; first compound 0.000632 µM) of the same molecule?
A: 0.4

Q: What about the relative viability (NCI-H727; first compound 0.002 µM) of the same molecule?
A: 0.255

Q: What about the relative viability (NCI-H727; first compound 0.006325 µM) of the same molecule?
A: 0.213

Q: And the relative viability (NCI-H727; first compound 0.02 µM)?
A: 0.182

Q: What about the relative viability (NCI-H661; first compound 0.0002 µM) of the same molecule?
A: 0.356

Q: What about the relative viability (NCI-H661; first compound 0.000632 µM) of the same molecule?
A: 0.387

Q: What about the relative viability (NCI-H661; first compound 0.002 µM) of the same molecule?
A: 0.341

Q: And the relative viability (NCI-H661; first compound 0.006325 µM)?
A: 0.296

Q: And the relative viability (NCI-H661; first compound 0.02 µM)?
A: 0.278

Q: And the relative viability (NCI-H1915; first compound 0.0002 µM)?
A: 0.857

Q: And the relative viability (NCI-H1915; first compound 0.000632 µM)?
A: 0.931

Q: What about the relative viability (NCI-H1915; first compound 0.002 µM) of the same molecule?
A: 0.275

Q: What about the relative viability (NCI-H1915; first compound 0.006325 µM) of the same molecule?
A: 0.257

Q: What about the relative viability (NCI-H1915; first compound 0.02 µM) of the same molecule?
A: 0.11

Q: And the relative viability (H3255; first compound 0.0002 µM)?
A: 0.395

Q: And the relative viability (H3255; first compound 0.000632 µM)?
A: 0.544

Q: And the relative viability (H3255; first compound 0.002 µM)?
A: 0.272

Q: And the relative viability (H3255; first compound 0.006325 µM)?
A: 0.21

Q: What about the relative viability (H3255; first compound 0.02 µM) of the same molecule?
A: 0.195

Q: And the relative viability (NCI-H2023; first compound 0.0002 µM)?
A: 0.213

Q: What about the relative viability (NCI-H2023; first compound 0.000632 µM) of the same molecule?
A: 0.188

Q: And the relative viability (NCI-H2023; first compound 0.002 µM)?
A: 0.142

Q: And the relative viability (NCI-H2023; first compound 0.006325 µM)?
A: 0.11

Q: And the relative viability (NCI-H2023; first compound 0.02 µM)?
A: 0.0766

Q: And the relative viability (SW 1573; first compound 0.0002 µM)?
A: 0.372

Q: And the relative viability (SW 1573; first compound 0.000632 µM)?
A: 0.314

Q: And the relative viability (SW 1573; first compound 0.002 µM)?
A: 0.196

Q: What about the relative viability (SW 1573; first compound 0.006325 µM) of the same molecule?
A: 0.153

Q: And the relative viability (SW 1573; first compound 0.02 µM)?
A: 0.144

Q: And the relative viability (LCLC-97TM1; first compound 0.000632 µM)?
A: 0.206

Q: What about the relative viability (LCLC-97TM1; first compound 0.002 µM) of the same molecule?
A: 0.113

Q: What about the relative viability (LCLC-97TM1; first compound 0.006325 µM) of the same molecule?
A: 0.112

Q: And the relative viability (LCLC-97TM1; first compound 0.02 µM)?
A: 0.102

Q: And the relative viability (NCI-H2347; first compound 0.0002 µM)?
A: 0.462

Q: What about the relative viability (NCI-H2347; first compound 0.000632 µM) of the same molecule?
A: 0.564

Q: What about the relative viability (NCI-H2347; first compound 0.002 µM) of the same molecule?
A: 0.696

Q: What about the relative viability (NCI-H2347; first compound 0.006325 µM) of the same molecule?
A: 0.647

Q: What about the relative viability (NCI-H2347; first compound 0.02 µM) of the same molecule?
A: 0.066

Q: What about the relative viability (LXF-289; first compound 0.0002 µM) of the same molecule?
A: 0.815

Q: And the relative viability (LXF-289; first compound 0.000632 µM)?
A: 0.653

Q: And the relative viability (LXF-289; first compound 0.002 µM)?
A: 0.212

Q: What about the relative viability (LXF-289; first compound 0.006325 µM) of the same molecule?
A: 0.114

Q: What about the relative viability (LXF-289; first compound 0.02 µM) of the same molecule?
A: 0.0576

Q: What about the relative viability (EPLC-272H; first compound 0.0002 µM) of the same molecule?
A: 0.27

Q: And the relative viability (EPLC-272H; first compound 0.000632 µM)?
A: 0.198

Q: And the relative viability (EPLC-272H; first compound 0.002 µM)?
A: 0.161

Q: What about the relative viability (EPLC-272H; first compound 0.006325 µM) of the same molecule?
A: 0.111

Q: What about the relative viability (EPLC-272H; first compound 0.02 µM) of the same molecule?
A: 0.126
